Results taken from US20240376085A1 (Janssen Pharmaceutica NV, priority 2021, published 2024).

Legend:
[1] = target: T1, IL-17A : IL-17RA binding (Homo sapiens, UniProt Q16552, K93Q); experiment: IL-17A(FLAG-tagged):IL-17RA(His-tagged) binding disruption Eu-HTRF assay, Protocol 1; details: FLAG-IL-17A 2.5 nM at 2x final concentration; average if tested more than once
T1 construct: Name: IL-17A-Flag
Method in brief: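 IC50 came from a one-site competition fit of the acceptor/donor (665/620 nm) HTRF ratio. His-tagged IL-17RA, Eu-anti-FLAG and D2-anti-His were added after a 1 h rt compound preincubation with FLAG-tagged IL-17A dimer in PBS/0.01% Triton X-100, followed by 2 h at rt before reading.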

[2] = system: IL-17A-induced G-CSF production in human normal keratinocyte (NHK); experiment: NHK assay: IL-17A-induced G-CSF production in normal human keratinocytes; type: cell-based; details: 24 h, IL-17A 5 ng/mL, average if tested more than once
Method in brief: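 Compound titrations are first mixed with recombinant human IL-17A for 1 h at room temperature. The mixture goes onto adult normal human keratinocytes (final IL-17A 5 ng/mL, 5% FBS, 0.2% DMSO) for 24 h at 37 °C. Secreted G-CSF is then measured by HTRF and IC50 fitted.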

T1 sequence (Q16552 with tags, fused parts or gaps K93Q): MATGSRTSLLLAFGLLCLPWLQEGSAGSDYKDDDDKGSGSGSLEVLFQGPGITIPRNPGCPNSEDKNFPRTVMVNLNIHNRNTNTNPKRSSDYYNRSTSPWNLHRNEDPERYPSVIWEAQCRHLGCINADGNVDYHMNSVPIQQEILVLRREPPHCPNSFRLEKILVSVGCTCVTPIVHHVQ

IC50 [1]	SMILES	IC50 ([2]; Homo sapiens, Keratinocyte)	IC50 [2]
> 100 nM	C[C@@H](NC(=O)CCC(F)(F)F)c1ccc2[nH]c([C@@H](NC(=O)c3cc(CCC(F)(F)F)no3)C3CCC(F)(F)CC3)nc2c1 [Example 215, N—((S)-(4,4-Difluorocyclohexyl)(5-((R)-1-(4,4,4-trifluorobutanamido)ethyl)-1H-benzo[d]imidazol-2-yl)methyl)-3-(3,3,3-trifluoropropyl)isoxazole-5-carboxamide]	> 100 nM	–
> 100 nM	CC(C)n1nccc1C(=O)N[C@@H](c1nc2ccc([C@H](NC(=O)CC3CC(F)(F)C3)C3CC3)cc2[nH]1)[C@@H]1CCCCO1 (relative stereo) [Example 251, N—((S*)-(6-((R)-Cyclopropyl(2-(3,3-difluorocyclobutyl)acetamido)methyl)-1H-benzo[d]imidazol-2-yl)((S*)-tetrahydro-2H-pyran-2-yl)methyl)-1-isopropyl-1H-pyrazole-5-carboxamide]	> 100 nM	–
> 100 nM	CC(C)n1nccc1C(=O)N[C@@H](CC(C)(C)C(F)(F)F)c1nc2ccc([C@H](NC(=O)CC3CC(F)(F)C3)C3CC3)cc2[nH]1 [Example 177, N—((S)-1-(6-((R)-Cyclopropyl(2-(3,3-difluorocyclobutyl)acetamido)methyl)-1H-benzo[d]imidazol-2-yl)-4,4,4-trifluoro-3,3-dimethylbutyl)-1-isopropyl-1H-pyrazole-5-carboxamide]	< 50 nM	–
> 100 nM	C[C@@H](NC(=O)CC(C(F)(F)F)C(F)(F)F)c1ccc2[nH]c([C@@H](NC(=O)c3ccnn3CCC(F)(F)F)C3CCC(F)(F)CC3)nc2c1 [Example 126, N—((S)-(4,4-Difluorocyclohexyl)(5-((R)-1-(4,4,4-trifluoro-3-(trifluoromethyl)butanamido)ethyl)-1H-benzo[d]imidazol-2-yl)methyl)-1-(3,3,3-trifluoropropyl)-1H-pyrazole-5-carboxamide]	50 to 100 nM	–
> 100 nM	C[C@@H](NC(=O)CCC(F)(F)F)c1ccc2[nH]c([C@@H](NC(=O)CC3CC3(F)F)C3CCC(F)(F)CC3)nc2c1 (single isomer, unassigned) [Example 107, N—((R)-1-(2-((S)-(4,4-Difluorocyclohexyl)(2-((R*)-2,2-difluorocyclopropyl)acetamido)methyl)-1H-benzo[d]imidazol-5-yl)ethyl)-4,4,4-trifluorobutanamide]	> 100 nM	–
> 100 nM	CC(C)n1ncc(F)c1C(=O)NC(CC(C)(C)C(F)(F)F)c1nc2cc([C@@H](C)NC(=O)CCC(F)(F)F)ccc2[nH]1 (single isomer, unassigned) [Example 194, 4-Fluoro-1-isopropyl-N—((S*)-4,4,4-trifluoro-3,3-dimethyl-1-(5-((R)-1-(4,4,4-trifluorobutanamido)ethyl)-1H-benzo[d]imidazol-2-yl)butyl)-1H-pyrazole-5-carboxamide]	> 100 nM	–
< 50 nM	O=C(CC1CC(F)(F)C1)N[C@@H](c1ccc2[nH]c([C@@H](NC(=O)c3nonc3C3CC3)C3CCC(F)(F)CC3)nc2c1)C1CC1 [Example 143, 4-Cyclopropyl-N—((S)-(5-((R)-cyclopropyl(2-(3,3-difluorocyclobutyl)acetamido)methyl)-1H-benzo[d]imidazol-2-yl)(4,4-difluorocyclohexyl)methyl)-1,2,5-oxadiazole-3-carboxamide]	< 50 nM	–
> 100 nM	C[C@@H](NC(=O)CCC(F)(F)F)c1ccc2[nH]c([C@@H](NC(=O)[C@H]3C[C@@H]3F)C3CCC(F)(F)CC3)nc2c1 [Example 98, (1R,2S)—N—((S)-(4,4-Difluorocyclohexyl)(5-((R)-1-(4,4,4-trifluorobutanamido)ethyl)-1H-benzo[d]imidazol-2-yl)methyl)-2-fluorocyclopropane-1-carboxamide]	> 100 nM	–
> 100 nM	C[C@@H](NC(=O)CCC(F)(F)F)c1ccc2[nH]c([C@@H](NC(=O)c3cnn(CC(F)(F)F)n3)C3CCC(F)(F)CC3)nc2c1 [Example 22, N—[(S)-(4,4-Difluorocyclohexyl)-[6-[(1R)-1-(4,4,4-trifluorobutanoylamino)ethyl]-1H-benzimidazol-2-yl]methyl]-2-(2,2,2-trifluoroethyl)triazole-4-carboxamide]	> 100 nM	–
> 100 nM	CCc1nonc1C(=O)N[C@@H](CC(C)(C)C(F)(F)F)c1nc2cc([C@@H](NC(=O)CCC(F)(F)F)C3CC3)ccc2[nH]1 (relative stereo) [Example 189, N—((S*)-1-(5-((S*)-Cyclopropyl(4,4,4-trifluorobutanamido)methyl)-1H-benzo[d]imidazol-2-yl)-4,4,4-trifluoro-3,3-dimethylbutyl)-4-ethyl-1,2,5-oxadiazole-3-carboxamide]	> 100 nM	–
> 100 nM	Cc1nonc1C(=O)N[C@H](c1nc2ccc([C@H](NC(=O)CC3CC(F)(F)C3)C3CC3)cc2[nH]1)[C@H]1C[C@@H](CC(F)(F)F)C1 (single isomer, unassigned) [Example 244]	> 100 nM	–
> 100 nM	C[C@@H](NC(=O)CCC(F)(F)F)c1ccc2[nH]c([C@@H](NC(=O)C3CC34CC4)C3CCC(F)(F)CC3)nc2c1 (stereo partly drawn) [Example 110, N—((S)-(4,4-Difluorocyclohexyl)(5-((R)-1-(4,4,4-trifluorobutanamido)ethyl)-1H-benzo[d]imidazol-2-yl)methyl)spiro[2.2]pentane-1-carboxamide]	> 100 nM	–
< 50 nM	CC(C)n1nccc1C(=O)N[C@@H](COC(C)(C)C(F)(F)F)c1nc2cc([C@H](NC(=O)CC3CC(F)(F)C3)C3CC3)ccc2[nH]1 [Example 160, N—((R)-1-(5-((R)-Cyclopropyl(2-(3,3-difluorocyclobutyl)acetamido)methyl)-1H-benzo[d]imidazol-2-yl)-2-((1,1,1-trifluoro-2-methylpropan-2-yl)oxy)ethyl)-1-isopropyl-1H-pyrazole-5-carboxamide]	< 50 nM	–
> 100 nM	C[C@@H](NC(=O)CCC(F)(F)F)c1ccc2[nH]c([C@@H](NC(=O)c3cnn(CCOC(F)(F)F)c3)C3CCC(F)(F)CC3)nc2c1 [Example 26, N—[(S)-(4,4-Difluorocyclohexyl)-[6-[(1R)-1-(4,4,4-trifluorobutanoylamino)ethyl]-1H-benzimidazol-2-yl]methyl]-1-[2-(trifluoromethoxy)ethyl]pyrazole-4-carboxamide]	> 100 nM	–
> 100 nM	CCC(NC(=O)CCC(F)(F)F)c1ccc2[nH]c([C@@H](NC(=O)c3ccnn3C)C3CCC(F)(F)CC3)nc2c1 (single isomer, unassigned) [Example 52, N—((S)-(4,4-Difluorocyclohexyl)(5-((S*)-1-(4,4,4-trifluorobutanamido)propyl)-1H-benzo[d]imidazol-2-yl)methyl)-1-methyl-1H-pyrazole-5-carboxamide]	> 100 nM	–
> 100 nM	CC(Cn1ncc(C(=O)N[C@H](c2nc3ccc([C@@H](C)NC(=O)CCC(F)(F)F)cc3[nH]2)C2CCC(F)(F)CC2)n1)C(F)(F)F (single isomer, unassigned) [Example 70, N—((S)-(4,4-Difluorocyclohexyl)(6-((R)-1-(4,4,4-trifluorobutanamido)ethyl)-1H-benzo[d]imidazol-2-yl)methyl)-2-((S*)-3,3,3-trifluoro-2-methylpropyl)-2H-1,2,3-triazole-4-carboxamide]	–	> 100 nM
> 100 nM	Cc1c(C(=O)N[C@H](c2nc3ccc([C@@H](C)NC(=O)CCC(F)(F)F)cc3[nH]2)C2CCC(F)(F)CC2)cnn1CC(F)F [Example 28, N—[(S)-(4,4-Difluorocyclohexyl)-[6-[(1R)-1-(4,4,4-trifluorobutanoylamino)ethyl]-1H-benzimidazol-2-yl]methyl]-1-(2,2-difluoroethyl)-5-methyl-pyrazole-4-carboxamide]	> 100 nM	–
< 50 nM	CC(C)c1nocc1C(=O)N[C@H](c1nc2cc([C@@H](C)NC(=O)CCC(F)(F)F)ccc2[nH]1)C1CCC(F)(F)CC1 [Example 204, N—((S)-(4,4-Difluorocyclohexyl)(5-((R)-1-(4,4,4-trifluorobutanamido)ethyl)-1H-benzo[d]imidazol-2-yl)methyl)-3-isopropylisoxazole-4-carboxamide]	< 50 nM	–
> 100 nM	CCn1ncc(C(=O)N[C@H](c2nc3cc([C@@H](C)NC(=O)CCC(F)(F)F)ccc3[nH]2)C2CCC(F)(F)CC2)n1 [Example 7, N—[(S)-(4,4-Difluorocyclohexyl)-[6-[(1R)-1-(4,4,4-trifluorobutanoylamino)ethyl]-1H-benzimidazol-2-yl]methyl]-2-ethyl-triazole-4-carboxamide]	> 100 nM	–
> 100 nM	CC(NC(=O)CCC(F)(F)F)c1ccc2nc([C@H](CC(C)(C)C(F)(F)F)NC(=O)c3ccnn3C(C)C)[nH]c2c1 (single isomer, unassigned) [Example 232, 1-Isopropyl-N—((S)-4,4,4-trifluoro-3,3-dimethyl-1-(6-((R*)-1-(4,4,4-trifluorobutanamido)ethyl)-1H-benzo[d]imidazol-2-yl)butyl)-1H-pyrazole-5-carboxamide]	–	50 to 100 nM
50 to 100 nM	O=C(CC1CC(F)(F)C1)N[C@@H](c1ccc2nc([C@@H](NC(=O)c3nonc3C3CC3)[C@@H]3CCCC(F)(F)C3)[nH]c2c1)C1CC1 [Example 171, 4-Cyclopropyl-N—((S)-(6-((R)-cyclopropyl(2-(3,3-difluorocyclobutyl)acetamido)methyl)-1H-benzo[d]imidazol-2-yl)((R)-3,3-difluorocyclohexyl)methyl)-1,2,5-oxadiazole-3-carboxamide]	< 50 nM	–
